Key:
PRMT5/MEP50 complex = PRMT5/MEP50 complex (Homo sapiens, UniProt O14744); test: Inhibition of recombinant human fetal brain FLAG-tagged PRMT5/full length human testis 6His-tagged MEP50 expressed in baculovirus infected insect Sf9 cells using human histone H4 (1 to 15 residues) as substrate preincubated for 30 mins followed by [3H]-SAM addition
[1] = Antiproliferative activity against human Z138 cells assessed as inhibition of cell viability after 5 days by Cell-Titer Glo assay; format: functional, cell-based; conditions: Z-138, 120 h
[2] = biological target: Protein arginine N-methyltransferase 5 (Homo sapiens, UniProt O14744); test: Inhibition of PRMT5 in human Z138 cells assessed as decrease in di-methyl arginine levels after 96 hrs by Western blot method; format: cell-based
Chain of Protein arginine N-methyltransferase 5 (O14744 whole entry): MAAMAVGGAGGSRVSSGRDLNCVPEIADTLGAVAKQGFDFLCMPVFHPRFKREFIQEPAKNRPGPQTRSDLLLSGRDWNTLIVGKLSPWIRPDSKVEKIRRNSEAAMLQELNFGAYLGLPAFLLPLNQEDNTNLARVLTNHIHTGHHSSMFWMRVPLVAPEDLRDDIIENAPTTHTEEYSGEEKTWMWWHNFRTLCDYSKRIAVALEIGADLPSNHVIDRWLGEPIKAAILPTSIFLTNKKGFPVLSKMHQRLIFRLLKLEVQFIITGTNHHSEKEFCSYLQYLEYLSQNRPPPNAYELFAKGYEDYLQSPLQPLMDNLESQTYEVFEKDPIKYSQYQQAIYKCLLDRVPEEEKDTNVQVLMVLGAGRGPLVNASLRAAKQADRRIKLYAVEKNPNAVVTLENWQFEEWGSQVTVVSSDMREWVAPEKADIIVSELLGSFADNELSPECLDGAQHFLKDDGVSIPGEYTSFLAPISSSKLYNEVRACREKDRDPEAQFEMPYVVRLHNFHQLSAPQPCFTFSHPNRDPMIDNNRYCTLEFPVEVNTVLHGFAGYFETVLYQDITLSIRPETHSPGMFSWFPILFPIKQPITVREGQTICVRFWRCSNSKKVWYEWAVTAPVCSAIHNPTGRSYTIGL

Chain of PRMT5/MEP50 complex (O14744 whole entry, the tested form may be a part): as the sequence (O14744 whole entry) above
Chain of PRMT5/MEP50 complex (Q9BQA1 whole entry, further chain, the tested form may be a part): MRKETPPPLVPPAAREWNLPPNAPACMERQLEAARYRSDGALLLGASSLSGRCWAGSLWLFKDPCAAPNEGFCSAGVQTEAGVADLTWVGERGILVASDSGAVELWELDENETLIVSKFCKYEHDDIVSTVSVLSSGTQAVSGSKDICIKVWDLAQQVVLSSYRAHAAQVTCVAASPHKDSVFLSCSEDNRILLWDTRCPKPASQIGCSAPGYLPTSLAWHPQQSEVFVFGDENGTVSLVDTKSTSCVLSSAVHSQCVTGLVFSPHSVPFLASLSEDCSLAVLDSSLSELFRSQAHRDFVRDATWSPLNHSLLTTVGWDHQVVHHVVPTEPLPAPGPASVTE

Compound	IC50 (PRMT5/MEP50 complex)	EC50 [2]	EC50 [1]
Cn1ccc2ccc(-c3cc(NCC(O)CN4CCc5ccccc5C4)ncn3)cc21 (stereo unspecified)	0.101 to 1 µM	0.101 to 1 µM	10 to 40 µM
CC(=O)Nc1ccc(OCC(=O)NCC(O)CN2CCc3ccccc3C2)cc1 (stereo unspecified)	0.101 to 1 µM	0.101 to 1 µM	> 20 µM
Oc1cccc(-c2cccc(OCC(O)CN3CCc4ccccc4C3)c2)c1 (stereo unspecified)	0.101 to 1 µM	1 to 10 µM	10 to 40 µM
O=C(NCC(O)CN1CCc2ccccc2C1)c1cccc(N2CCOCC2)c1 (stereo unspecified)	< 0.1 µM	0.101 to 1 µM	1 to 10 µM
CN1CCN(c2ccc(-c3cccc(OCC(O)CN4CCc5ccccc5C4)c3)cn2)CC1 (stereo unspecified)	0.101 to 1 µM	1 to 10 µM	1 to 10 µM
CN(C)S(=O)(=O)c1ccccc1OCC(=O)NCC(O)CN1Cc2ccccc2C1 (stereo unspecified)	< 0.1 µM	0.101 to 1 µM	1 to 10 µM
OC(COc1cccc(-c2ccc3cn[nH]c3c2)c1)CN1CCc2ccccc2C1 (stereo unspecified)	0.101 to 1 µM	1 to 10 µM	10 to 40 µM
CNC(=O)c1ccccc1OCC(=O)NCC(O)CN1CCc2ccccc2C1 (stereo unspecified)	0.101 to 1 µM	0.101 to 1 µM	> 20 µM
OC(COc1ccc(C2CCCNC2)cc1)CN1CCc2ccccc2C1 (stereo unspecified)	< 0.1 µM	0.101 to 1 µM	1 to 10 µM
Cc1ccncc1-c1cccc(OCC(O)CN2CCc3ccccc3C2)c1 (stereo unspecified)	0.101 to 10 µM	0.101 to 1 µM	10 to 40 µM
CC(=O)N1CCC(n2ccc3cnc(-c4cccc(OCC(O)CN5CCc6ccccc6C5)c4)nc32)CC1 (stereo unspecified)	0.101 to 1 µM	0.101 to 1 µM	1 to 10 µM
O=C(NC[C@H](O)CN1CCc2ccccc2C1)c1cccc(-c2ccccn2)c1	< 0.1 µM	< 0.1 µM	0.101 to 1 µM
CN1CCOc2cccc(OCC(=O)NCC(O)CN3CCc4ccccc4C3)c21 (stereo unspecified)	< 0.1 µM	< 0.1 µM	0.101 to 1 µM
Cc1ccc(F)c(-c2cccc(OCC(O)CN3CCc4ccccc4C3)c2)c1 (stereo unspecified)	0.101 to 1 µM	1 to 10 µM	> 20 µM
Cn1ccc2ccc(-c3cccc(OCC(O)CN4CCc5ccccc5C4)c3)nc21 (stereo unspecified)	< 0.1 µM	0.101 to 1 µM	> 20 µM
CC(=O)Nc1ccc(C(=O)NCC(O)CN2CCc3ccccc3C2)cc1 (stereo unspecified)	0.101 to 1 µM	0.101 to 1 µM	> 20 µM
CS(=O)(=O)Nc1ccc(OCC(=O)NCC(O)CN2CCc3ccccc3C2)cc1 (stereo unspecified)	0.101 to 1 µM	0.101 to 1 µM	> 20 µM
OC(COc1cccc(-c2ccc3[nH]ncc3c2)c1)CN1CCc2ccccc2C1 (stereo unspecified)	0.101 to 1 µM	1 to 10 µM	> 20 µM
CN1CCc2cccc(OCC(=O)NCC(O)CN3CCc4ccccc4C3)c2C1 (stereo unspecified)	0.101 to 1 µM	1 to 10 µM	> 20 µM
N#Cc1ccc(OCC(=O)NCC(O)CN2CCc3ccccc3C2)cc1 (stereo unspecified)	0.101 to 1 µM	0.101 to 1 µM	10 to 50 µM
O=C(COc1cccc2c1OCCO2)NCC(O)CN1CCc2ccccc2C1 (stereo unspecified)	< 0.1 µM	< 0.1 µM	1 to 10 µM
Cc1c(NC2CCOCC2)cccc1C(=O)NCC(O)CN1CCc2ccccc2C1 (stereo unspecified)	< 0.1 µM	< 0.1 µM	1 to 10 µM
OC(COc1cccc(-c2csc3ccccc23)c1)CN1CCc2ccccc2C1 (stereo unspecified)	0.101 to 1 µM	1 to 10 µM	> 20 µM
Cn1cc2ccc(-c3cc(NCC(O)CN4CCc5ccccc5C4)ncn3)cc2n1 (stereo unspecified)	0.101 to 1 µM	0.101 to 1 µM	> 20 µM

Compound	IC50 (PRMT5/MEP50 complex)	EC50 [2]	EC50 [1]
Cn1ncc2cc(-c3cccc(OCC(O)CN4CCc5ccccc5C4)c3)ccc21 (stereo unspecified)	< 0.1 µM	1 to 10 µM	10 to 40 µM
COc1ccc(Cn2cnc3ccc(-c4cccc(OCC(O)CN5CCc6ccccc6C5)c4)cc32)cc1 (stereo unspecified)	0.101 to 1 µM	1 to 10 µM	10 to 40 µM
OC(COc1cccc(-c2ccccc2)c1)CN1CCc2ccccc2C1 (stereo unspecified)	0.101 to 1 µM	1 to 10 µM	> 20 µM
CN1CCC(n2cnc3ccc(-c4ccnc(NCC(O)CN5CCc6ccccc6C5)c4)cc32)CC1 (stereo unspecified)	< 0.1 µM	0.101 to 1 µM	1 to 10 µM
O=C(COc1ccccc1-c1cc[nH]n1)NCC(O)CN1CCc2ccccc2C1 (stereo unspecified)	< 0.1 µM	< 0.1 µM	1 to 10 µM
CS(=O)(=O)Nc1ccccc1OCC(=O)NCC(O)CN1CCc2ccccc2C1 (stereo unspecified)	< 0.1 µM	0.101 to 1 µM	1 to 10 µM
O=C(COc1ccccc1N1CCNCC1)NCC(O)CN1CCc2ccccc2C1 (stereo unspecified)	< 0.1 µM	0.101 to 1 µM	1 to 10 µM
COc1ccc(-c2cccc(OCC(O)CN3CCc4ccccc4C3)c2)cc1 (stereo unspecified)	0.101 to 1 µM	1 to 10 µM	10 to 40 µM
CC(=O)N1CCN(c2ccccc2OCC(=O)NCC(O)CN2CCc3ccccc3C2)CC1 (stereo unspecified)	< 0.1 µM	0.101 to 1 µM	10 to 50 µM
Cn1cnc2ccc(-c3ccnc(NCC(O)CN4CCc5ccccc5C4)c3)nc21 (stereo unspecified)	< 0.1 µM	< 0.1 µM	1 to 10 µM
CN1CCN(C(=O)Cn2ccc3cnc(-c4cccc(OCC(O)CN5CCc6ccccc6C5)c4)nc32)CC1 (stereo unspecified)	0.101 to 1 µM	0.101 to 1 µM	10 to 40 µM
O=C(COc1ccccc1-c1cc[nH]n1)NCC(O)CN1Cc2ccccc2C1 (stereo unspecified)	0.101 to 1 µM	0.101 to 1 µM	> 20 µM
CS(=O)(=O)N1CCN(c2ccccc2OCC(=O)NCC(O)CN2CCc3ccccc3C2)CC1 (stereo unspecified)	0.101 to 1 µM	0.101 to 1 µM	> 20 µM
CN1CCN(c2cccc(C(=O)NCC(O)CN3CCc4ccccc4C3)c2)CC1 (stereo unspecified)	< 0.1 µM	0.101 to 1 µM	10 to 50 µM
CNS(=O)(=O)c1ccccc1OCC(=O)NCC(O)CN1CCc2ccccc2C1 (stereo unspecified)	< 0.1 µM	0.101 to 1 µM	1 to 10 µM
CNC(=O)c1cccc(-c2cccc(OCC(O)CN3CCc4ccccc4C3)c2)c1 (stereo unspecified)	0.101 to 1 µM	1 to 10 µM	> 20 µM
CN1CCN(S(=O)(=O)c2ccccc2OCC(=O)NCC(O)CN2CCc3ccccc3C2)CC1 (stereo unspecified)	< 0.1 µM	0.101 to 1 µM	10 to 50 µM
O=C(NCC(O)CN1Cc2ccccc2C1)c1cccc(-c2ccccn2)c1 (stereo unspecified)	0.101 to 1 µM	1 to 10 µM	> 20 µM
O=C(NC[C@H](O)CN1CCc2ccccc2C1)Nc1ccccc1	0.101 to 1 µM	0.101 to 1 µM	> 20 µM
CN1CCN(C(=O)Cn2ccc3cnc(-c4ccnc(NCC(O)CN5CCc6ccccc6C5)c4)nc32)CC1 (stereo unspecified)	< 0.1 µM	< 0.1 µM	1 to 10 µM
O=C(Cn1ccc2cnc(-c3ccnc(NCC(O)CN4CCc5ccccc5C4)c3)nc21)N1CCCCC1 (stereo unspecified)	< 0.1 µM	< 0.1 µM	0.101 to 1 µM
CC1c2ccccc2CCN1CC(O)COc1cccc(-c2ccc3ncn(C)c3c2)c1 (stereo unspecified)	0.101 to 1 µM	> 20 µM	1 to 10 µM
CNC(=O)c1cncc(-c2cccc(OCC(O)CN3CCc4ccccc4C3)c2)c1 (stereo unspecified)	1 to 10 µM	1 to 10 µM	> 20 µM

Second part, led by results:

IC50 (PRMT5/MEP50 complex)	EC50 [2]	Compound	EC50 [1]
0.101 to 1 µM	1 to 10 µM	Cn1cnc2ccc(-c3cc(NCC(O)CN4CCc5ccccc5C4)ccn3)cc21 (stereo unspecified)	10 to 40 µM
< 0.1 µM	0.101 to 1 µM	C[C@@H](Oc1cccc2cccnc12)C(=O)NC[C@@H](O)CN1CCc2ccccc2C1	1 to 10 µM
< 0.1 µM	< 0.1 µM	O=C(NCC(O)CN1CCc2ccccc2C1)c1ccc(-c2ccccn2)cc1 (stereo unspecified)	0.101 to 1 µM
0.101 to 1 µM	1 to 10 µM	COc1ccc(-c2cccc(OCC(O)CN3CCc4ccccc4C3)c2)c(C)c1 (stereo unspecified)	10 to 40 µM
0.101 to 1 µM	1 to 10 µM	O=C(Nc1cccc(OCC(O)CN2CCc3ccccc3C2)c1)c1cnccn1 (stereo unspecified)	> 20 µM
0.101 to 1 µM	10 to 40 µM	OC(COc1cccc(-c2ccc3c(c2)OCO3)c1)CN1CCc2ccccc2C1 (stereo unspecified)	10 to 40 µM
0.101 to 1 µM	1 to 10 µM	CNC(=O)Cn1cnc2ccc(-c3cccc(OCC(O)CN4CCc5ccccc5C4)c3)cc21 (stereo unspecified)	1 to 10 µM
0.101 to 1 µM	0.101 to 1 µM	O=C1Cc2ccccc2N1CC(O)CN1CCc2ccccc2C1 (stereo unspecified)	> 20 µM
< 0.1 µM	0.101 to 1 µM	OC(CNc1cc(-c2ccc3ncn(C4CCNC4)c3c2)ccn1)CN1CCc2ccccc2C1 (stereo unspecified)	1 to 10 µM
< 0.1 µM	< 0.1 µM	O=C(COc1cccc(CN2CCOCC2)c1)NCC(O)CN1CCc2ccccc2C1 (stereo unspecified)	1 to 10 µM
< 0.1 µM	< 0.1 µM	Cn1ccc2cnc(-c3ccnc(NCC(O)CN4CCc5ccccc5C4)c3)nc21 (stereo unspecified)	1 to 10 µM
< 0.1 µM	< 0.1 µM	O=C(Cn1ccc2cnc(-c3ccnc(NCC(O)CN4CCc5ccccc5C4)c3)nc21)N1CCOCC1 (stereo unspecified)	0.101 to 1 µM
0.101 to 1 µM	1 to 10 µM	OC(COc1cccc(-c2ccc3ncoc3c2)c1)CN1CCc2ccccc2C1 (stereo unspecified)	10 to 40 µM
0.101 to 1 µM	1 to 10 µM	CC(C)Oc1ccc(F)c(-c2cccc(OCC(O)CN3CCc4ccccc4C3)c2)c1 (stereo unspecified)	> 20 µM
0.101 to 1 µM	0.101 to 1 µM	O=C(COc1cccc(C(=O)N2CCOCC2)c1)NCC(O)CN1CCc2ccccc2C1 (stereo unspecified)	10 to 50 µM
0.101 to 1 µM	0.101 to 1 µM	O=C(COc1ccccc1C1CCCNC1)NCC(O)CN1CCc2ccccc2C1 (stereo unspecified)	1 to 10 µM
0.101 to 1 µM	0.101 to 1 µM	NC(=O)c1ccccc1OCC(=O)NCC(O)CN1CCc2ccccc2C1 (stereo unspecified)	> 20 µM
< 0.1 µM	0.101 to 1 µM	CN1CCC(n2ncc3cc(OCC(=O)NCC(O)CN4CCc5ccccc5C4)ccc32)C1 (stereo unspecified)	10 to 50 µM
< 0.1 µM	0.101 to 1 µM	OC(COc1cccc(-c2ccc3ncn(C4CCNC4)c3c2)c1)CN1CCc2ccccc2C1 (stereo unspecified)	1 to 10 µM
0.101 to 1 µM	0.101 to 1 µM	CC(=O)Nc1cccc(C(=O)NCC(O)CN2CCc3ccccc3C2)c1 (stereo unspecified)	10 to 50 µM
